# Assay results from paper PMC2918394 (Journal of medicinal chemistry, 2010).
# Columns and labels:
# [1] = biological target: SARS-CoV PLpro (Severe acute respiratory syndrome coronavirus, UniProt P0C6X7); type: biochemical
# [2] = tested on: SARS-CoV; type: cell-based; conditions: SARS-CoV infected Vero E6 cells
molecule,measurement,setting,value
1-[1-(2-Naphthyl)ethyl]-4-(4-methoxybenzylamino)carbonylpiperazine [Compound 20],PLpro inhibitory activity (in words),[1],no activity against PLpro
COc1ccc(CNC(=O)C2CCN(Cc3cccc4ccccc34)CC2)cc1 [Compound 3],antiviral activity (in words),[2],does not show any antiviral activity
"COc1ccccc1CNC(=O)C1CCN(Cc2cccc3ccccc23)CC1 [Compound 7a, 1-[(1-Naphthyl)methyl]-4-[(2-methoxybenzylamino)carbonyl]piperidine]",PLpro inhibitory activity (in words),[1],very poor inhibitory activity
"COc1ccccc1CNC(=O)C1CCN([C@H](C)c2cccc3ccccc23)CC1 [Compound 15a, 1-[(R)-1-(1-Naphthyl)ethyl]-4-(2-methoxybenzylamino)carbonylpiperidine]",reduction in potency over 15b and 15c,[1],3 fold
"COc1ccc(CNC(=O)C2CCN([C@H](C)c3cccc4ccccc34)CC2)cc1 [Compound 15c, 1-[(R)-1-(1-Naphthyl)ethyl]-4-(4-methoxybenzylamino)carbonylpiperidine]",potency enhancement over 3,[1],> 170 fold
"COc1cccc(CNC(=O)C2CCN([C@@H](C)c3ccc4ccccc4c3)CC2)c1 [Compound 15f, 1-[(S)-1-(2-Naphthyl)ethyl]-4-(3-methoxybenzylamino)carbonylpiperidine]",more potent than the 2(R)-derivative 15d,[1],2 fold
same,antiviral activity (in words),[2],no antiviral activity
"CC(C)(c1cccc2ccccc12)N1CCC(C(=O)NCc2ccc3c(c2)OCO3)CC1 [Compound 15k, 1-[1-Methyl-1-(1-naphthyl)ethyl]-4-[3,4-(methylenedioxy)benzylamino]carbonylpiperidine]",PLpro inhibitory activity (in words),[1],inactive
